Assay [1] deals with Induced myeloid leukemia cell differentiation protein Mcl-1 (Homo sapiens, UniProt Q07820). The class given is functional.
In assay [2] the target is T1, Probable nicotinate-nucleotide adenylyltransferase (Staphylococcus aureus (strain N315), UniProt P65502). The class given is functional, Staphylococcus aureus subsp. aureus N315.
Assay [3] concerns the target DNA (cytosine-5)-methyltransferase 1 (Homo sapiens, UniProt P26358). Briefly: inhibition of DNA methylation by DNMT1 – biochemical, fluorescent molecular beacon, confirmation (AID 602386). It is filed as functional.
Assay [4] concerns the target T2, Carboxy-terminal domain RNA polymerase II polypeptide A small phosphatase 1 (Homo sapiens, UniProt Q9GZU7).
T2 sequence (Q9GZU7 whole entry): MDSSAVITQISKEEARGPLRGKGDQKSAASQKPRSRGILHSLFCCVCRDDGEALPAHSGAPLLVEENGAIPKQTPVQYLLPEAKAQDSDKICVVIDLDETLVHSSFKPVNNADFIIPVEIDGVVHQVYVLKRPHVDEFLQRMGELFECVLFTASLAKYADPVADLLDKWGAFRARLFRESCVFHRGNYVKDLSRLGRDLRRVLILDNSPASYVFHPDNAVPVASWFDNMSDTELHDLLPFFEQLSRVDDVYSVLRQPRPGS
In words: CTDSP1 inhibitors, concentration-response, biochemical, absorbance readout, ultra-high-throughput screen actives (AID 540297). The class given is functional.

In assay [5] the target is T1, Probable nicotinate-nucleotide adenylyltransferase. The class given is functional, Staphylococcus aureus subsp. aureus N315. The conditions noted are these: read-out: IC50_Mean.
For assay [6], the target named is T3, Mitochondrial peptide methionine sulfoxide reductase (Bos taurus, UniProt P54149).
T3 sequence (P54149 whole entry): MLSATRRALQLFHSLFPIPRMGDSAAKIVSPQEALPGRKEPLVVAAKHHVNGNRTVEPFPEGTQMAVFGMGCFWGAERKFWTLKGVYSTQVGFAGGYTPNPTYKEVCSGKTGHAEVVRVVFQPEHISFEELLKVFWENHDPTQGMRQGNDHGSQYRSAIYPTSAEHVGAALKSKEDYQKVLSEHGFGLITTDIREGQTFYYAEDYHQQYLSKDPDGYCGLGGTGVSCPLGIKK
Briefly: Absorbance-based biochemical high throughput dose response assay for activators of Methionine sulfoxide reductase A (MsrA). The class given is functional.

Assay [7] can be described thus: NIH-3T3 fibroblast cytotoxicity, dose response, cytotoxicity control, cell-based, fluorescence, Alamar Blue, secondary assay (AID 2327).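 Also: NIH-3T3 mouse fibroblasts cultured with fluconazole at 8 µg/mL.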 The class given is functional. On the technique in general: Alamar Blue is a resazurin reagent that responds to reducing activity.
Assay [8] is described as follows: fluconazole-exposed Candida albicans growth modulators – fluorescence, retest, confirmation (AID 2467). The class given is functional, cell-based.
Assay [9] deals with T4, High affinity choline transporter 1 (Homo sapiens, UniProt Q9GZV3).
T4 sequence (Q9GZV3 whole entry): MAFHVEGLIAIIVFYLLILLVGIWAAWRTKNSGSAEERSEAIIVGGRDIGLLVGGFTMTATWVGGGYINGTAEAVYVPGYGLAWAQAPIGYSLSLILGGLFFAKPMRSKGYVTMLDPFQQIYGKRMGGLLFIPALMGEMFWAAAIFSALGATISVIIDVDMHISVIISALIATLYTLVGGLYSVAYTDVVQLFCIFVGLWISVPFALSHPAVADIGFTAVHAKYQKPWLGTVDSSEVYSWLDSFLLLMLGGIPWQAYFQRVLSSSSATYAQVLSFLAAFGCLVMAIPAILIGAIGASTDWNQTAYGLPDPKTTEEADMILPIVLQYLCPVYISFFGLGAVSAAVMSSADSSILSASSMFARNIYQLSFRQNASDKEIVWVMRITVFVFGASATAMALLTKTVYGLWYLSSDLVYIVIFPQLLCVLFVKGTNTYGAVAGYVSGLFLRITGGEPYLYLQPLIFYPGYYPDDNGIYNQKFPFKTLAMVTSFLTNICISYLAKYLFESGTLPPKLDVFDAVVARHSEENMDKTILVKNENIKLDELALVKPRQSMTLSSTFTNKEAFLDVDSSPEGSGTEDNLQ
In words: human choline transporter blockers, potency – cell-based, 5-point CRC, membrane potential dye, dose response (AID 504840). It is filed as functional.

In assay [10] the target is T4, High affinity choline transporter 1. Briefly: human choline transporter blockers, potency – cell-based, 10-point CRC, membrane potential dye, dose response (AID 588401).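 Also: membrane potential dye fluorescence of choline-evoked depolarization via CHT.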 The class given is functional.
Assay [11] has as its target T5, Orexin receptor type 2 (Homo sapiens, UniProt O43614).
T5 sequence (O43614 whole entry): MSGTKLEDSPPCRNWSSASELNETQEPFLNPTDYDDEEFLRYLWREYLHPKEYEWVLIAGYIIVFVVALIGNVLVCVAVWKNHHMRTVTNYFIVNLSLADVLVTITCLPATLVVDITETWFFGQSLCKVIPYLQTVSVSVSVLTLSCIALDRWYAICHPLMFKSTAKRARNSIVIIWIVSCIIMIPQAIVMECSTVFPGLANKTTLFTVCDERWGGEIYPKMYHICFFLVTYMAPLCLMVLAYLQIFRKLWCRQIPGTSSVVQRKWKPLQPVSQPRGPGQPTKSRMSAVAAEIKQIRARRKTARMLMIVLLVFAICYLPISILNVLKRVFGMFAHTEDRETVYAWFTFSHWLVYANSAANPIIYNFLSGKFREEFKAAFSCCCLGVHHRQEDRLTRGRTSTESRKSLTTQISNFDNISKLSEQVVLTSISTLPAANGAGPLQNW
Briefly: Counterscreen assay for antagonists of the orexin 1 receptor (OX1R; HCRTR1): Homogeneous Time Resolved Fluorescence (HTRF)-based cell-based dose response assay for antagonists of the orexin 2 receptor (OX2R; HCRTR2), run by assay provider. It is filed as functional. Background: A counterscreen serves to expose hits that act by an unwanted route or on another target.

Assay [12] in a line: microbe, parasite or virus in culture. It is filed as functional. The settings on record: Mycobacterium tuberculosis.
In assay [13] the target is T5, Orexin receptor type 2. In words: Counterscreen assay for antagonists of the orexin 1 receptor (OX1R; HCRTR1): Fluorescence-based cell-based dose response assay for antagonists of the orexin 2 receptor (OX2R; HCRTR2), run by assay provider. The class given is functional.
The nature of assay [14]: Counterscreen for antagonists of the orexin 1 receptor (OX1R; HCRTR1): Fluorescence-based cell-based high throughput dose response assay to identify antagonists of the parental CHO cell line. [Related pubchem assays (depositor defined):AID434989, AID435008, AID463079, AID485270, AID492963, AID492964, AID492965, AID493232, AID504699, AID504701]. It is filed as functional.

Assay [15] addresses T6, Orexin/Hypocretin receptor type 1 (Homo sapiens, UniProt O43613).
T6 sequence (O43613 whole entry): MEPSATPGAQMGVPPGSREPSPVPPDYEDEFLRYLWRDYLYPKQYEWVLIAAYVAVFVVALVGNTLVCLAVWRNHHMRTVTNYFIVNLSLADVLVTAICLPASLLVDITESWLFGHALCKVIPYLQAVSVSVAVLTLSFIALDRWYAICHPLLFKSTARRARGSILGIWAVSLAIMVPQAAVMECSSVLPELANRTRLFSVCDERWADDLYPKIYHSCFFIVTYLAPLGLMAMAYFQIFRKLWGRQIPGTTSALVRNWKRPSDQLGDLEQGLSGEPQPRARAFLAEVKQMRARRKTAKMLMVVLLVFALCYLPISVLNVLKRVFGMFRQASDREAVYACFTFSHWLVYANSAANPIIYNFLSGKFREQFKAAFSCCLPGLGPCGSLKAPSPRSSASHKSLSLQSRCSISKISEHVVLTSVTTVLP
In words: Homogeneous Time Resolved Fluorescence (HTRF)-based cell-based high throughput dose response assay for antagonists of the orexin 1 receptor (OX1R; HCRTR1). [Related pubchem assays (depositor defined):AID434989, AID435008, AID463079, AID485270, AID492963, AID492964, AID492965, AID493232, AID504717, AID504718]. It is filed as functional. (Time-resolved FRET reads energy transfer from a long-lived donor to a nearby acceptor.)

Assay [16] deals with T6, Orexin/Hypocretin receptor type 1. In words: Fluorescence-based cell-based high throughput dose response assay for antagonists of the orexin 1 receptor (OX1R; HCRTR1). [Related pubchem assays (depositor defined):AID434989, AID435008, AID463079, AID485270, AID492963, AID492964, AID492965, AID493232, AID504717, AID504718]. It is filed as functional.
Another assay concerns CHO-K1. In words: Counterscreen for antagonists of the orexin 1 receptor (OX1R; HCRTR1): Homogeneous time resolved fluorescence (HTRF)-based cell-based dose response assay to identify antagonists of the parental CHO-K1 cell line. [Related pubchem assays (depositor defined):AID434989, AID435008, AID463079, AID485270, AID492963, AID492964, AID492965, AID493232, AID504699, AID504701]. The class given is functional. The conditions noted are these: Cricetulus griseus.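 Also: potency for inhibition of ATP-stimulated IP1 production as antagonists.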

Assay [17] is described as follows: bead-based luminescence quenchers, dual-tagged ARNT – biochemical, AlphaScreen, cherry-pick, artefact control for ARNT-TACC3 interaction inhibitor project, dose response (AID 651705).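 Also: AlphaScreen bead proximity signal that flags compounds interfering with the detection technology; potency reflects signal decrease which marks the compound as an assay artifact.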 The class given is functional.
Assay [18] deals with Cell division cycle 7-related protein kinase (Homo sapiens, UniProt O00311). The class given is functional.
For assay [19], the target named is Dual specificity protein kinase CLK4 (Homo sapiens, UniProt Q9HAZ1). It is filed as functional.
Assay [20] addresses Glycogen synthase kinase-3 beta (Homo sapiens, UniProt P49841). The class given is functional.
The target of assay [21] is Serine/threonine-protein kinase pim-1 (Homo sapiens, UniProt P11309). It is filed as functional.
Assay [22] concerns the target cAMP-dependent protein kinase catalytic subunit alpha (Homo sapiens, UniProt P17612). It is filed as functional.
The target of assay [23] is Homeodomain-interacting protein kinase 2 (Homo sapiens, UniProt Q9H2X6). It is filed as functional.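 Also: measured within a kinome-wide kinase profiling panel, HIPK2 being one panel member.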
The target in assay [24] is Interleukin-1 receptor-associated kinase 4 (Homo sapiens, UniProt Q9NWZ3). The class given is functional.
Assay [25] has as its target DNA repair and recombination protein RAD54-like (Homo sapiens, UniProt Q92698). In words: RAD54 Holliday junction migration blockers – biochemical, fluorescence, cherry-picked samples, dose series, confirmation (AID 651657). It is filed as functional.
Assay [26] addresses T7, DNA repair protein RAD52 homolog (Homo sapiens, UniProt P43351).
T7 sequence (P43351 whole entry): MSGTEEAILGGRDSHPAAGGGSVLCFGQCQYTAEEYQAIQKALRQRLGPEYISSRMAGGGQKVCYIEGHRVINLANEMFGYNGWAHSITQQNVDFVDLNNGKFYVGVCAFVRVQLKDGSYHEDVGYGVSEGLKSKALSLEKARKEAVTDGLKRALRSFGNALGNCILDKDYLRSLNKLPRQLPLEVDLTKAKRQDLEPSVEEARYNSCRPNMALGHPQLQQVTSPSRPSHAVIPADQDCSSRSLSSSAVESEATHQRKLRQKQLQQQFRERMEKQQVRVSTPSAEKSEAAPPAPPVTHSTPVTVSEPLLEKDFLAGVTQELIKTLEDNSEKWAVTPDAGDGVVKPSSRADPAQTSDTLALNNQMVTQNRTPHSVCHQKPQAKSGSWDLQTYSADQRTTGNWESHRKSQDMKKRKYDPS
The class given is functional, biochemical.

Activity calls are given as the source filed them. A value given as a limit tells only on which side of the number the result lay.
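For IC50 Mean in this document: confirmatory dose-response retesting of NadD inhibitor hits first found in an ultra-high-throughput screen.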

T1 sequence (P65502 whole entry): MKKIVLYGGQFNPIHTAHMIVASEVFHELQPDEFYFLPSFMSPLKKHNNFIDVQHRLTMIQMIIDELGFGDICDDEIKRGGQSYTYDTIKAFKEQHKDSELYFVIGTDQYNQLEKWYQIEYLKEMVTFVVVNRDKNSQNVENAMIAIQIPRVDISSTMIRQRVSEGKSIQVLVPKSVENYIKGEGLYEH
DNA (cytosine-5)-methyltransferase 1, sequence (P26358 whole entry, the tested form may be a part): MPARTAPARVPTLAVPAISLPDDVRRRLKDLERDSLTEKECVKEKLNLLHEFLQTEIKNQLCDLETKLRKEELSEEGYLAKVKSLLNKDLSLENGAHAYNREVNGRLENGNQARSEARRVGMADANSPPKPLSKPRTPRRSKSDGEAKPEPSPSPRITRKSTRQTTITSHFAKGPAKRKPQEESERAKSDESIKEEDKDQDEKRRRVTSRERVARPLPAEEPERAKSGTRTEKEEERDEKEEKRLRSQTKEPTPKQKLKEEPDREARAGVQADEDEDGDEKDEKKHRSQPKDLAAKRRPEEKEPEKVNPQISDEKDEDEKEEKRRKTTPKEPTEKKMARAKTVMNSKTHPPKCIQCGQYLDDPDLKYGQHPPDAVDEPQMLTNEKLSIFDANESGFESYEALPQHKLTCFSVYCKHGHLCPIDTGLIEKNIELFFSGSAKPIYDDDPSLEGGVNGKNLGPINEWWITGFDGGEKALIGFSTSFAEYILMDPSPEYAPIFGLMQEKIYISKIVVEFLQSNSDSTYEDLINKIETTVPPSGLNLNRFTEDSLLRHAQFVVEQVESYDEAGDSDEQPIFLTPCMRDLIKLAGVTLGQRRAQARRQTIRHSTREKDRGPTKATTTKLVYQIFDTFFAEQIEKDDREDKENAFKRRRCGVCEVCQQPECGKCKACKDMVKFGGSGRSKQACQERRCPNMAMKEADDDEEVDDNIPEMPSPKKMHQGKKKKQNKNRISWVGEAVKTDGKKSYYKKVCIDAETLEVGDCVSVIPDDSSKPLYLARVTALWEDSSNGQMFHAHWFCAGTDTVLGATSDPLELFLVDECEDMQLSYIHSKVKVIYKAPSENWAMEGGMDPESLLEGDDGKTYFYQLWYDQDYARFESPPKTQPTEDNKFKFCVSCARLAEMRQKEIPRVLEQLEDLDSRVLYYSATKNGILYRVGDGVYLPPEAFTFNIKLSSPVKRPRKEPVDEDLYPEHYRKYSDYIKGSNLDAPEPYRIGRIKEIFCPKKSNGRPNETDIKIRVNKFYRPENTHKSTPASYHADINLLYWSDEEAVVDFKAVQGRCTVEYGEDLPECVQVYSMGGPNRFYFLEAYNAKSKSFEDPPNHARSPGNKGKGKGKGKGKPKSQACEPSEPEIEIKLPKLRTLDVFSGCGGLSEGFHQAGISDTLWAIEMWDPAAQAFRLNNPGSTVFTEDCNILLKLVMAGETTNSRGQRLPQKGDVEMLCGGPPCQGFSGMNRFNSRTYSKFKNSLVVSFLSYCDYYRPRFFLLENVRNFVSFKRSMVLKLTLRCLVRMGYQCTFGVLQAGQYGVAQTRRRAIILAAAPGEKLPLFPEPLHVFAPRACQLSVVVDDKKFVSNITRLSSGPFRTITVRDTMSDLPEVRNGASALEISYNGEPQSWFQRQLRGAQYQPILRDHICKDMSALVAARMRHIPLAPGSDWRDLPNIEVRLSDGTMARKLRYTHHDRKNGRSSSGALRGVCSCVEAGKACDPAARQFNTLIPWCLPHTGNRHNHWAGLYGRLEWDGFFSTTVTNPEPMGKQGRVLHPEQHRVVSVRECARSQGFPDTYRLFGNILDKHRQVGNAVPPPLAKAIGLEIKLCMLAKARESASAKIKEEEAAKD
Dual specificity protein kinase CLK4, sequence (Q9HAZ1 whole entry): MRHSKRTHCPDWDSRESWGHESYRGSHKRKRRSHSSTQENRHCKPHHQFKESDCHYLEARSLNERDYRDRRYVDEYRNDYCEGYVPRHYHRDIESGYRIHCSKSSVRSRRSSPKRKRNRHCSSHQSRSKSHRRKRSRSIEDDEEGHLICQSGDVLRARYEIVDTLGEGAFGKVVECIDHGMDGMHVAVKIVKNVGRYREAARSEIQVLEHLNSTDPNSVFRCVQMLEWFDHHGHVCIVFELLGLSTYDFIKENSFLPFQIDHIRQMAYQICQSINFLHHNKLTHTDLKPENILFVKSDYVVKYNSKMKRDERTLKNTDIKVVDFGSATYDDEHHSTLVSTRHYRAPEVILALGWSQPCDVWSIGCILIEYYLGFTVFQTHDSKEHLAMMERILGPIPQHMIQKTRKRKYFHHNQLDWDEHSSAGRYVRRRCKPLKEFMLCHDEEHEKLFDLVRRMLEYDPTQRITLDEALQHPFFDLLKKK
Glycogen synthase kinase-3 beta, sequence (P49841 whole entry): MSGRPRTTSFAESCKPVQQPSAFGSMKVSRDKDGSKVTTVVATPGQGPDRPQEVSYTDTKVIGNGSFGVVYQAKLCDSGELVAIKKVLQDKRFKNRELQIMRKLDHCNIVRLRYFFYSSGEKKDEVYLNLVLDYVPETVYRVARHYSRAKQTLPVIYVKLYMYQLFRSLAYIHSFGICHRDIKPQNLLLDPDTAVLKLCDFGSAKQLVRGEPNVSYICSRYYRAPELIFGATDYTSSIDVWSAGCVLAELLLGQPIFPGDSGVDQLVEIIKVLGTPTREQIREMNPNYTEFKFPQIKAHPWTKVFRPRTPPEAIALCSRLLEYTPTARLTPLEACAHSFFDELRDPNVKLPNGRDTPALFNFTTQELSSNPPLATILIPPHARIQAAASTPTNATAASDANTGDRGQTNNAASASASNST
DNA repair and recombination protein RAD54-like, sequence (Q92698 whole entry): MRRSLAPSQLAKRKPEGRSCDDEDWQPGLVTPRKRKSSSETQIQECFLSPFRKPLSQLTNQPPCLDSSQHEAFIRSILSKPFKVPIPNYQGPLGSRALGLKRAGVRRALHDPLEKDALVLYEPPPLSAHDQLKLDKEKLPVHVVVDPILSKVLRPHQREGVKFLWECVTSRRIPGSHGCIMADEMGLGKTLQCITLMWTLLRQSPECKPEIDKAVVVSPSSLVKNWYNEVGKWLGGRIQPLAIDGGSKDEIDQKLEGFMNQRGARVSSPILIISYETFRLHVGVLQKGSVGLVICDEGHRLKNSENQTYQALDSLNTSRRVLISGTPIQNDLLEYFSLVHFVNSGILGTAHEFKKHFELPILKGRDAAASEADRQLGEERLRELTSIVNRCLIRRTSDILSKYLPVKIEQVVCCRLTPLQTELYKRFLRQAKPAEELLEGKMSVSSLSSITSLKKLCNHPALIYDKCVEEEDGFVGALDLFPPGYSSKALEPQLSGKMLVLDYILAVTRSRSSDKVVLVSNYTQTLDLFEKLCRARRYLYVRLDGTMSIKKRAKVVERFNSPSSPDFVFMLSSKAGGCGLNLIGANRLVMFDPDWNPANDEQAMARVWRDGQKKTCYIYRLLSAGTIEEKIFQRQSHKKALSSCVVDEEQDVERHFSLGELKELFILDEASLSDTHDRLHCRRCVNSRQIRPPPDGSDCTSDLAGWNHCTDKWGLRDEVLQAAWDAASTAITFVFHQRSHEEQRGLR
Induced myeloid leukemia cell differentiation protein Mcl-1, sequence (Q07820 whole entry): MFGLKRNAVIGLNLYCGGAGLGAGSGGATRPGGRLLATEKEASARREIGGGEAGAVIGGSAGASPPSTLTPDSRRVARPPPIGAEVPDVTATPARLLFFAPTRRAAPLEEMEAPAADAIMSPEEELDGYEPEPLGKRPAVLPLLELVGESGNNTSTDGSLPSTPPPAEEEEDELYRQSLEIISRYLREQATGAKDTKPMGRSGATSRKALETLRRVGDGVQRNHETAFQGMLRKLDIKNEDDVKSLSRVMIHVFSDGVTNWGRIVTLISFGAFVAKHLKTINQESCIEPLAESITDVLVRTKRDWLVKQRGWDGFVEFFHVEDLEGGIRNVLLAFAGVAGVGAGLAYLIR
Homeodomain-interacting protein kinase 2, sequence (Q9H2X6 whole entry): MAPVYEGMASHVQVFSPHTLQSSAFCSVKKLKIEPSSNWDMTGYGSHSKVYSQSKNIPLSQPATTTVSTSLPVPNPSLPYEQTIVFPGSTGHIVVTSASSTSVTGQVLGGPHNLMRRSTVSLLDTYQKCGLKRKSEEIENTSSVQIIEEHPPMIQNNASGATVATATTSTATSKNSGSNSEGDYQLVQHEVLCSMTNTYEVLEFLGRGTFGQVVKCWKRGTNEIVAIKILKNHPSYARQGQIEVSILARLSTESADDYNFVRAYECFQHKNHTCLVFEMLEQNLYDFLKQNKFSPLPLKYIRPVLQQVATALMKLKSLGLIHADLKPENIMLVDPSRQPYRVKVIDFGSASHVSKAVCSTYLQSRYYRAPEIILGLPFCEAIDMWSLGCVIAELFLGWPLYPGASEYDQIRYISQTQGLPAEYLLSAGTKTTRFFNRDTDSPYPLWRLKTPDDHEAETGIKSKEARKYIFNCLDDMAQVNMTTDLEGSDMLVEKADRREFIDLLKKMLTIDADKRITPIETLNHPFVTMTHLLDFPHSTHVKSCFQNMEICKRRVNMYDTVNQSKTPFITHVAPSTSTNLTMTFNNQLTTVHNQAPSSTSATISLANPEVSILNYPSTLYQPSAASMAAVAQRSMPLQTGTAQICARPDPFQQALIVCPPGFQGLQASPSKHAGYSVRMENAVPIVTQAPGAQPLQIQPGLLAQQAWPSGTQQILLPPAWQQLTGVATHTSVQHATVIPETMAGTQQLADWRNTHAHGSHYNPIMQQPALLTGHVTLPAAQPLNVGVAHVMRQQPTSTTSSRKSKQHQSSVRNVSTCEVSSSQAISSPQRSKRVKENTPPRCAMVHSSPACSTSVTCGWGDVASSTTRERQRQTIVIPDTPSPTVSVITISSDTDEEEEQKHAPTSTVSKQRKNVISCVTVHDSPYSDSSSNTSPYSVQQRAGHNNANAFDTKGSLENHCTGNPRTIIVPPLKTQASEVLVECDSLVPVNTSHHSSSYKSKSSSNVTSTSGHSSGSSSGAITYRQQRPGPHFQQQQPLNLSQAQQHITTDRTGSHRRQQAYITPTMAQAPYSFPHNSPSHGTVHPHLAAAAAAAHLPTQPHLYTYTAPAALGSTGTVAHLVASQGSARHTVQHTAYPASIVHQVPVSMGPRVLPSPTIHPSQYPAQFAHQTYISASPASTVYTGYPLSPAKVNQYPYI

For `Cn1c(N)c(C(=O)COC(=O)c2cc(-c3ccco3)nc3ccccc23)c(=O)n(C)c1=O`, the IC50 in [1] was 2.97 µM (active); in assay [2] it was 6.76 µM (active); in [3], 5.78 µM (active); in assay [4], 2.52 µM (active); in [5], 15.9 µM (active).

With `Cc1ccc(C(=O)NC(=S)NNC(=O)CC#N)cc1`, the results for the EC50 in assay [6], in [7] and in [8] were > 104 µM (inactive), > 150 µM (inconclusive) and > 38 µM (not active), respectively.

On to `Cc1ccc(NC(=O)c2ccccc2NS(=O)(=O)c2ccc(Cl)s2)cc1S(=O)(=O)N1CCOCC1`, for which the IC50 in assay [9] is 9.12 µM (active); in assay [10], 7.23 µM (active).

With `O=C(Nc1nnc(-c2ccccc2)o1)c1cc(-c2cccs2)nc2ccccc12`, the EC50 – broadly, the concentration at which the effect is half-maximal – was > 150 µM (inconclusive) in [7] and 1.15 µM (active) in [8]. Also, the IC50 at Orexin receptor type 2 [11] is > 50 µM (inactive); at Orexin receptor type 2 [13], 8.5 µM (active); in assay [2], 6.82 µM (active); in [14], 43.7 µM (inactive); in assay [15] it was 6.15 µM (active); in assay [16] it was 30.4 µM (inactive). Also, the IC50 was > 66.2 µM (inactive) in the assay with CHO-K1 and 19.5 µM (active) in assay [5]. For the same molecule, the CC50 in assay [12] is 38.7 µM (active).

Turning to `CS(=O)(=O)c1cccc(-c2nnc(NC(=O)c3ccc(S(=O)(=O)N4CCCC4)cc3)o2)c1`, in [17], the AC50 (usually the midpoint of the concentration-response curve, whichever way the signal moves) is 113 µM (active).

With `COCC(C)N1CCC(Oc2cccc(C(=O)NCCc3ccccc3)c2)CC1` (stereo not drawn), the IC50 was 7.46 µM (active) in assay [9] and 4.22 µM (active) in [10].

On to `CC(C)(O)CNc1cc(-c2c[nH]c3ncccc23)cc(Cl)n1`, for which the Ki (commonly a dissociation constant, usually derived from enzyme kinetics or from competition with a known ligand) in assay [18] is 0.002 µM (active); in assay [19], 0.00501 µM (active); in assay [20], 0.316 µM (active); in [21], 1 µM (active); in assay [22], 0.316 µM (active); in [23], 0.126 µM (active). For the same molecule, in [24], the inhibitory constant (Ki) was 2.51 µM (active).

Consider `CN(C)CCCNc1c2c(nc3ccccc13)CCC2`, for which the AC50 in assay [25] is 20.8 µM (active); in assay [26], 4.86 µM (active).

For the origin of these results see ChEMBL document CHEMBL1201862, “PubChem BioAssay data set” (2004).
